{"source": "patent US11360104B2", "about": "“Microbial-based biosensors” (TRUSTEES OF BOSTON UNIVERSITY, priority 2017, dated 2022)", "key": {"[1]": {"test_system": "Pimelobacter simplex PinR (AIY20223.2; SEQ ID NO: 1), his-tagged (AIY-his6)", "assay": "QD-FRET steroid sensor (QD-PinR + DNA-Cy5), steroid-induced TF-DNA unbinding", "format": "biochemical", "conditions": "sensor 3 in HEPES 1×; 0 to 10 uM steroid", "experimental": "(§1) Fluorescent spectra were analyzed using MATLAB (Mathworks) and were fitted with a sum of 2 Gaussians (D=QD: FWHM=27 nm, λmax=607 nm; A=DNA-Cy5: FWHM=40 nm, λmax=669 nm). The area of each Gaussian was extracted and FD and FA are obtained respectively for the fluorescence of QD (donor) and Cy5 (acceptor).\nRaw dose-response curves were obtained by plotting FA/FD as a function of the steroid concentration. Sensor output is the normalization of the fluorescent spectra of the donor and acceptor according to the following equation: […]\nNon-normalized dose-response were fitted with Origin Pro 8 software with the non-linear equation: […]\nThe cross-reactivity of progesterone regarding the different steroids was calculated with the following equation: […]\nCdSe/CdS/ZnS QDs were coated with a zwitterionic polymer bearing histamine anchoring functions (P1, SI). Once the hydrophobic QDs were transferred into H2O using a biphasic ligand exchange, his-tagged TFs were self-assembled on the QD surface to produce the QD-TF. Addition of the double stranded, Cy5-labeled TF-binding sequence completed probe assembly as the oligo binds to the TF in the absence of progesterone (PRG). The molar ratios of the QD, TF, and DNA in the sensor were controlled through the stoichiometric ratios of the mixed parts.\nTwo fluorescent spectra were recorded, one from the QDs and one from the Cy5 due to the FRET.\nFirst, the DNA1 (most binding sequence) has been used to build the first biosensor, named sensor 1. For this sensor, a ratio of QD/TF/DNA of 1/4/18 was chosen. […] In order to homogenize the fluorescent signals in between batches and different sensor variations, FA/FD was normalized to give the signal output. Signal output is then plotted against PRG concentration to give a dose-response curve (FIG. 9C) This curve was fitted with the non-linear equation XX to obtain the half-maximal inhibitory concentration (IC50) (Table 13).\n(§2) Description for a typical experiment, using a molar ratio of QD/TF/DNA=1/4/18. QDs in (275 uL, 0.15 uM in HEPES 1×, pH 7.6 with 1% BSA) were mixed with AIY-his6 (275 uL, 0.6 uM in HEPES 1× pH 7.6) at room temperature for 45 min. Then, the double-stranded DNA labelled with a Cy5 fluorescent probe at the 3′ and 5′ ends (275 uL, 2.7 uM in HEPES 1× pH 7.6) was added to the mixture. After 30 min, 220 uL of HEPES 1× pH 7.5 and 330 uL of 5× binding buffer (25 mM MgCl2, 25% glycerol, and 250 mg/L Invitrogen™ UltraPure™ Salmon Sperm DNA in Tris-HCl 0.1M) were added and the mixture is left 15 more min at RT.\n(§3) 50 uL of the sensor (QD/TF/DNA) was then splitted in 3×9 centrifuge tubes to which 10 uL of progesterone at the desired concentration is added. As such, the final concentration of QD/TF/DNA for the measurements is 25 nM/100 nM/450 nM. A 384 well plate was filled with 60 uL of each solution. The fluorescence intensity was monitored on a spectrofluorimeter from 535 nm to 800 nm exciting at 400 nm, equipped with a 450 nm long-pass filter in emission."}, "PinR": {"biological_target": "PinR (Nocardioides simplex (Pimelobacter simplex), UniProt A0A0A1DUF2)", "sequence (A0A0A1DUF2 entry or part of it)": "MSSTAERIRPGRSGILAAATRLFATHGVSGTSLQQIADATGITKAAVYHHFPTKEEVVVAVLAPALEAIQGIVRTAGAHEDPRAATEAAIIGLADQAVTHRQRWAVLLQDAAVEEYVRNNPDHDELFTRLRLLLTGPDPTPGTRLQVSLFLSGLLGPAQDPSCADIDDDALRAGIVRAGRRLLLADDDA", "assay": "Cross-reactivity assay of steroids using sensor 3", "format": "biochemical", "conditions": "sensor 3, HEPES 1×, 0 to 10 uM of steroids", "experimental": "The cross-reactivity of progesterone regarding the different steroids was calculated with the following equation:\nDescription for a typical experiment, using a molar ratio of QD/TF/DNA=1/4/18.\nas §3, with “As such, the final concentration of QD/TF/DNA for the measurements is 25 nM/100 nM/450 nM.” left out"}, "Pimelobacter simplex": {"test_system": "Pimelobacter simplex", "assay": "Solvent and steroid exposure growth curves", "excerpt": "In order to identify steroid binding Transcription Factors, a whole transcriptome RNA sequencing (RNA-Seq) screen was developed (FIG. 7). The growth of Pimelobacter simplex bacteria was profiled with respect to the starting inoculation density, solvent toxicity, and the addition of steroids (FIG. 16). […] P. simplex bacteria were screened against the steroid solvents ethanol (EtOH) and dimethyl sulfoxide (DMSO). […] Steroid growth curves were similarly performed using a starting OD of 0.005 and constant solvent dosing with titrations of steroids. […] P. simplex bacteria were grown in the presence of 700 μM testosterone, 21.88 μM progesterone, 87.50 μM estrone, 21.88 μM 17β-estradiol, 21.88 μM hydrocortisone, or 175.00 μM aldosterone concentrations were selected for comparison.\nIn order to properly determine the doubling time of the strain, growth curves were performed. All growth curves were done in 100 μL per well volumes in 96 well flat clear bottom black polystyrene TC-treated microplates which were individually wrapped with a lid and sterile (Corning #3603). Measurements were done by an Infinite M200 Pro (TECAN) spectrophotometer at the temperature suited for P. simplex. Readings were performed over 96 cycles of 15 minutes each at 600 nm absorbance with 25 flashes in a 3×3 (XY-Line) type reads per well. In between reads there was orbital shaking at 150 rpm frequency for a total of 10 minutes. In order to characterize the growth alone, a ½ serial dilution of 9 concentrations from 0.5-0.0020 OD600 nm were prepared in the respective media. Then each concentration was measured as previously described using a microplate reader (TECAN) and normalized against a media background control in technical triplicate. Afterward, an appropriate starting concentration of cells was chosen with a substantially long lag-phase, linear log phase, and a plateau of stationary-phase.\nOnce an appropriate starting cell concentration was chosen, a secondary growth curve was performed to test the toxicity levels of the solvents used to dissolve steroids of interest. Since the steroids used are heavily hydrophobic, they often need to be dissolved in organic solvents such as DMSO or ethanol which are toxic to bacteria at high concentrations. P. simplex was incubated under microplate reader conditions previously mentioned at a starting OD determined by the first growth curve with DMSO, ethanol, or H2O at ½ serial dilutions for a total of eight concentrations (50-0.39%) tested in technical triplicate. Two controls were included per solvent; a positive control without solvent and a media control which allowed for appropriate normalization. Solvent exposure growth curves allowed for choosing the maximum amount of solvent concentration that strains would sustain while maintaining relative viability in order to determine a range of steroid concentrations which could be used.\nA tertiary growth curve was performed to test the toxicity levels of steroid specific to P. simplex. The strain was incubated under microplate reader conditions previously mentioned at a starting OD determined by the first growth curve and the highest solvent concentration corresponding to the steroid of interest with steroid at ½ serial dilutions for a total of seven concentrations tested in singlet. Testosterone, progesterone, 17β-estradiol, hydrocortisone, and aldosterone were all dissolved in ethanol while estrone was dissolved in DMSO. Three controls were included for each steroid; a positive control with the highest tolerable solvent concentration (%), a positive control with media, and a media control which allowed for normalization. Steroid exposure growth curves allowed for choosing the maximum amount of steroid concentration that P. simplex would sustain while maintaining relative viability."}, "[2]": {"assay": "QD-FRET sensor progesterone titration in HEPES 1×", "format": "biochemical", "experimental": "as §1\nRaw dose-response curves were obtained by plotting FA/FD as a function of the steroid concentration. Sensor output is the normalization of the fluorescent spectra of the donor and acceptor according to the following equation:\n[formula] Where F=FA/FD, Fi is for [PRG]=i, Fmin stands for the average on 3 experiments of F for [PRG]=0 nM and Fmax stands for the average on 3 experiments of F for [PRG]=10 uM.\nNon-normalized dose-response were fitted with Origin Pro 8 software with the non-linear equation:\nMathematically, the limit of detection in the signal domain (LD) is given by:LD=meanblank−3.3×σtest LD=meanblank−3.3×σtest where meanblank is the mean signal for a reagent blank and σtest is the pool standard deviation for all test samples in the dilution series, calculated as[9]:\nThen the Limit of detection (LOD) is calculated using the parameters of the fit with the non-linear equation (XX) for y=LD:\nas §2, §3"}}, "note": "Read-outs that look alike come from different tables or passages of the source. {Cy5} = Cy5 fluorescent dye attached at the strand end"}
{"molecule": "CC(C)CCC[C@@H](C)[C@H]1CC[C@H]2[C@@H]3CC=C4C[C@@H](O)CC[C@]4(C)[C@H]3CC[C@]12C", "note": "[CHL, Cholesterol]", "values": [{"measurement": "cross-reactivity (in words)", "setting": "[1]", "result": "No cross-reactivity was observed"}, {"measurement": "cross-reactivity", "setting": "PinR", "result": "No cross-reactivity"}]}
{"molecule": "C[S+](C)[O-]", "note": "[DMSO, dimethyl sulfoxide]", "values": [{"measurement": "highest solvent concentration that did not produce a physiological change in growth", "setting": "Pimelobacter simplex; P. simplex vs solvent-free control", "result": 0.35, "unit": "% by volume"}]}
{"molecule": "CCO", "note": "[EtOH, ethanol]", "values": [{"measurement": "highest solvent concentration that did not produce a physiological change in growth", "setting": "Pimelobacter simplex", "result": 0.70, "unit": "% by volume"}]}
{"molecule": "C[C@H](O)[C@H]1CC[C@H]2[C@@H]3CC[C@@H]4C[C@H](O)CC[C@]4(C)[C@H]3CC[C@]12C", "note": "[PRE, 5β-Pregnane-3α,20-α-diol]", "values": [{"measurement": "cross-reactivity (in words)", "setting": "[1]", "result": "No cross-reactivity was observed"}, {"measurement": "cross-reactivity", "setting": "PinR", "result": "No cross-reactivity"}]}
{"molecule": "C[C@H](O)[C@H]1CC[C@H]2[C@@H]3CC[C@@H]4C[C@H](O[C@@H]5O[C@H](C(=O)O)[C@@H](O)[C@H](O)[C@H]5O)CC[C@]4(C)[C@H]3CC[C@]12C", "note": "[PRE-glu, 5β-Pregnane-3α,20-α-diol glucuronide]", "values": [{"measurement": "cross-reactivity (in words)", "setting": "[1]", "result": "No cross-reactivity was observed"}, {"measurement": "cross-reactivity", "setting": "PinR", "result": "No cross-reactivity"}]}
{"molecule": "DNA1: Cy5-labelled PinR binding probe 5Cy5-GCCTAACTAGCCGTTCGGCTAGTTATTC-3Cy5 (SEQ ID NO: 24) (DNA, 5' {Cy5}, 3' {Cy5}, backbone and methylation of C not given here; hybridized with complementary strand to form double-stranded fluorescent oligo)", "values": [{"measurement": "[Pro]min", "setting": "[2]; QD/TF/DNA=1/4/18, [QD]=25 nM", "result": 0.073, "unit": "µM"}]}
{"molecule": "DNA2: Cy5-labelled PinR binding probe 5Cy5-GCCTAACTAGCCGATCGGCTAGTCATTC-3Cy5 (SEQ ID NO: 26) (DNA, 5' {Cy5}, 3' {Cy5}, backbone and methylation of C not given here; hybridized with complementary strand to form double-stranded fluorescent oligo)", "values": [{"measurement": "[Pro]min", "setting": "[2]; QD/TF/DNA=1/4/18, [QD]=25 nM", "result": 0.051, "unit": "µM"}]}
{"molecule": "DNA3: Cy5-labelled PinR binding probe 5Cy5-GCCTAACTAGCCGTTCGGCAAGTAATTC-3Cy5 (SEQ ID NO: 28) (DNA, 5' {Cy5}, 3' {Cy5}, backbone and methylation of C not given here; hybridized with complementary strand to form double-stranded fluorescent oligo)", "values": [{"measurement": "[Pro]min", "setting": "[2]; DNA 3, QD/TF/DNA 1/1/2", "result": 0.040, "unit": "µM"}, {"measurement": "[Pro]min", "setting": "[2]; DNA 3, QD/TF/DNA 1/1/18", "result": 0.072, "unit": "µM"}, {"measurement": "[Pro]min", "setting": "[2]; DNA 3, QD/TF/DNA 1/2/2", "result": 0.053, "unit": "µM"}, {"measurement": "[Pro]min", "setting": "[2]; DNA 3, QD/TF/DNA 1/2/18", "result": 0.070, "unit": "µM"}, {"measurement": "[Pro]min", "setting": "[2]; DNA 3, QD/TF/DNA 1/4/2", "result": 0.050, "unit": "µM"}, {"measurement": "[Pro]min", "setting": "[2]; DNA 3, QD/TF/DNA 1/4/18", "result": 0.040, "unit": "µM"}, {"measurement": "[Pro]min", "setting": "[2]; DNA 3, QD/TF/DNA 1/10/18", "result": 0.065, "unit": "µM"}, {"measurement": "[Pro]min", "setting": "[2]; DNA 3, QD/TF/DNA 1/16/18", "result": 0.075, "unit": "µM"}, {"measurement": "[Pro]min", "setting": "[2]; QD/TF/DNA=1/4/18, [QD]=25 nM", "result": 0.040, "unit": "µM"}]}
{"molecule": "DNA4: Cy5-labelled PinR binding probe 5Cy5-CCTTAACTAGCCGTTCTGTTAGTTATT C-3Cy5 (SEQ ID NO: 30) (DNA CCTTAACTAGCCGTTCTGTTAGTTATTC; DNA, 5' {Cy5}, 3' {Cy5}, backbone and methylation of C not given here; hybridized with complementary strand to form double-stranded fluorescent oligo)", "values": [{"measurement": "[Pro]min", "setting": "[2]; DNA 4, QD/TF/DNA 1/1/4", "result": 0.024, "unit": "µM"}, {"measurement": "[Pro]min", "setting": "[2]; DNA 4, QD/TF/DNA 1/1/18", "result": 0.017, "unit": "µM"}, {"measurement": "[Pro]min", "setting": "[2]; DNA 4, QD/TF/DNA 1/4/9", "result": 0.066, "unit": "µM"}, {"measurement": "[Pro]min", "setting": "[2]; DNA 4, QD/TF/DNA 1/4/18", "result": 0.044, "unit": "µM"}, {"measurement": "[Pro]min", "setting": "[2]; DNA 4, QD/TF/DNA 1/16/8", "result": 0.190, "unit": "µM"}, {"measurement": "[Pro]min", "setting": "[2]; QD/TF/DNA=1/4/18, [QD]=25 nM", "result": 0.044, "unit": "µM"}]}
